Experimental data as given in ChEMBL document CHEMBL1201862, “PubChem BioAssay data set” (2004).
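Following 48 hours of exposure in 96-well plates, responses at five concentrations were used to interpolate endpoints linearly. At the GI50, growth is halved.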 Calls of active or inactive are those of the source. Cut-off read from the data, not from the text of the source: active = GI50 up to about 1.1 µM and inactive = higher.

Tests used:
Experiment in all cases: growth of human tumour cells (NCI), 48 h
ACHN = test system: ACHN
CAKI-1 = test system: CAKI-1
COLO 205 = test system: COLO 205
EKVX = test system: EKVX
HCT-116 = test system: HCT-116
HCT-15 = test system: HCT-15
KM-20L2 = test system: KM-20L2
NCI-H226 = test system: NCI-H226
NCI-H460 = test system: NCI-H460
RPMI-8226 = test system: RPMI-8226
SK-MEL-5 = test system: SK-MEL-5
SNB-19 = test system: SNB-19
SNB-75 = test system: SNB-75
SR = test system: SR
U-251 = test system: U-251
OVCAR-4 = test system: OVCAR-4

SMILES | GI50 (ACHN) | GI50 (CAKI-1) | GI50 (COLO 205) | GI50 (EKVX) | GI50 (HCT-116) | GI50 (HCT-15) | GI50 (KM-20L2) | GI50 (NCI-H226) | GI50 (NCI-H460) | GI50 (RPMI-8226) | GI50 (SK-MEL-5) | GI50 (SNB-19) | GI50 (SNB-75) | GI50 (SR) | GI50 (U-251) | GI50 (OVCAR-4)
CCOC(=O)C1=C(C(=O)OCC)C2c3ccccc3C=CN2C(C(=O)OCC)=C(SC)S1 (stereo unspecified) | > 100 µM (inactive) | > 100 µM (inactive) | 91.6 µM (inactive) | > 100 µM (inactive) | 50.7 µM (inactive) | 79.8 µM | > 100 µM (inactive) | > 100 µM (inactive) | > 100 µM (inactive) | 17.8 µM (inactive) | 32.4 µM (inactive) | > 100 µM (inactive) | > 100 µM (inactive) | 19.3 µM (inactive) | 50.7 µM (inactive) | –
Cc1ns/c(=N\C(=S)N(C)C)n1C | > 100 µM (inactive) | > 100 µM (inactive) | – | > 100 µM (inactive) | > 100 µM (inactive) | > 100 µM | > 100 µM (inactive) | > 100 µM (inactive) | > 100 µM (inactive) | > 100 µM (inactive) | > 100 µM (inactive) | > 100 µM (inactive) | > 100 µM (inactive) | > 100 µM (inactive) | > 100 µM (inactive) | > 100 µM (inactive)
CC(C)(C)c1cc(Cc2ccc([N+](C)(C)C)cc2)c(O)c(C(C)(C)C)c1 | > 100 µM (inactive) | 63.8 µM (inactive) | – | 30.2 µM (inactive) | 16.7 µM (inactive) | > 100 µM | 21.9 µM (inactive) | – | 18.6 µM (inactive) | 14.8 µM (inactive) | 10.6 µM (inactive) | 12.9 µM (inactive) | 9.2 µM (inactive) | 14.1 µM (inactive) | 12.7 µM (inactive) | 30.1 µM (inactive)
CC(=O)N1C/C(=C\c2ccc(N(C)C)cc2)C(=O)/C(=C/c2ccc(N(C)C)cc2)C1 | 87.5 µM (inactive) | 41.1 µM (inactive) | > 10 µM (inactive) | – | 40.6 µM (inactive) | > 100 µM | 28.7 µM (inactive) | 57.9 µM (inactive) | – | > 100 µM (inactive) | 54.2 µM (inactive) | 24.8 µM (inactive) | 17.2 µM (inactive) | 35.6 µM (inactive) | 31.1 µM (inactive) | > 100 µM (inactive)
NCCCNCCSSCCCCS(=O)O | 55.2 µM (inactive) | 75.5 µM (inactive) | 16.4 µM (inactive) | 85.7 µM (inactive) | 25.7 µM (inactive) | > 100 µM | > 100 µM (inactive) | 57.8 µM (inactive) | 65.9 µM (inactive) | 26.1 µM (inactive) | 17.2 µM (inactive) | > 100 µM (inactive) | 30.8 µM (inactive) | 3.37 µM (inactive) | > 100 µM (inactive) | 14.6 µM (inactive)
CC(Oc1ccc2c(=O)cc(-c3ccccc3)oc2c1)C(=O)O (stereo unspecified) | > 100 µM (inactive) | > 100 µM (inactive) | > 100 µM (inactive) | > 100 µM (inactive) | > 100 µM (inactive) | – | > 100 µM (inactive) | > 100 µM (inactive) | > 100 µM (inactive) | – | > 100 µM (inactive) | > 100 µM (inactive) | > 100 µM (inactive) | > 100 µM (inactive) | > 100 µM (inactive) | > 100 µM (inactive)
COc1cc(C2C(C(=O)Nc3ccc([N+](=O)[O-])cc3)=C(C)NC(C)=C2C(=O)Nc2ccc([N+](=O)[O-])cc2)ccc1O | 24.3 µM (inactive) | 31 µM (inactive) | 16.4 µM (inactive) | 39.1 µM (inactive) | 16 µM (inactive) | 19.1 µM | 18.5 µM (inactive) | 24.2 µM (inactive) | 23.3 µM (inactive) | 24.3 µM (inactive) | 31.8 µM (inactive) | 25.7 µM (inactive) | 30.5 µM (inactive) | 5.07 µM (inactive) | 16.8 µM (inactive) | 27 µM (inactive)
COc1ccc(S(=O)(=O)NNS(C)(=O)=O)cc1 | > 100 µM (inactive) | > 100 µM (inactive) | > 100 µM (inactive) | > 100 µM (inactive) | > 100 µM (inactive) | > 10 µM | > 100 µM (inactive) | > 100 µM (inactive) | – | > 100 µM (inactive) | > 100 µM (inactive) | > 100 µM (inactive) | > 100 µM (inactive) | > 100 µM (inactive) | > 100 µM (inactive) | > 100 µM (inactive)
Cc1ccc(S(=O)(=O)c2ccc(NC(=O)SCCC(=O)O)cc2)cc1 | > 100 µM (inactive) | > 100 µM (inactive) | > 100 µM (inactive) | > 100 µM (inactive) | > 100 µM (inactive) | > 100 µM | > 100 µM (inactive) | > 100 µM (inactive) | > 100 µM (inactive) | > 100 µM (inactive) | – | > 100 µM (inactive) | 17.8 µM (inactive) | > 100 µM (inactive) | > 100 µM (inactive) | > 100 µM (inactive)
CC(=O)Nc1ccc(-c2nnc(SCC(=O)Nc3ccc(C)cc3)o2)cc1 | 31.6 µM (inactive) | 11.9 µM (inactive) | 17.7 µM (inactive) | – | 15.7 µM (inactive) | 16.2 µM | 19.5 µM (inactive) | 27.5 µM (inactive) | 23.2 µM (inactive) | 26.2 µM (inactive) | 14.7 µM (inactive) | – | 16.4 µM (inactive) | 28 µM (inactive) | 19.4 µM (inactive) | 17.7 µM (inactive)
Cc1ccc(C)c(NC(=O)CCc2nnc(S)[nH]2)c1 | > 100 µM (inactive) | > 100 µM (inactive) | > 100 µM (inactive) | > 100 µM (inactive) | 69.2 µM (inactive) | 44.2 µM | > 100 µM (inactive) | > 100 µM (inactive) | > 100 µM (inactive) | > 100 µM (inactive) | > 100 µM (inactive) | > 100 µM (inactive) | > 100 µM (inactive) | 6.43 µM (inactive) | > 100 µM (inactive) | > 100 µM (inactive)
Cn1ncc2c(c1=O)Nc1ccccc1S2(=O)=O | > 100 µM (inactive) | > 100 µM (inactive) | 54.7 µM (inactive) | > 100 µM (inactive) | 50 µM (inactive) | > 100 µM | > 100 µM (inactive) | > 100 µM (inactive) | > 100 µM (inactive) | 53.8 µM (inactive) | > 100 µM (inactive) | > 100 µM (inactive) | > 100 µM (inactive) | 51.3 µM (inactive) | 34.6 µM (inactive) | > 100 µM (inactive)
Cc1cccc(C)c1NC(=O)C(=O)CC(=O)c1cccc([N+](=O)[O-])c1 | > 100 µM (inactive) | > 100 µM (inactive) | > 100 µM (inactive) | > 100 µM (inactive) | > 100 µM (inactive) | > 100 µM | > 100 µM (inactive) | > 100 µM (inactive) | > 100 µM (inactive) | > 100 µM (inactive) | > 100 µM (inactive) | > 100 µM (inactive) | > 100 µM (inactive) | > 100 µM (inactive) | > 100 µM (inactive) | > 100 µM (inactive)
